We go through two compounds from ChEMBL document CHEMBL4229400, “Covalent inhibitors of nicotinamide N-methyltransferase (NNMT) provide evidence for target engagement challenges in situ” (Bioorg Med Chem Lett, 2018).

Each structure is given as a SMILES string. Active and inactive are the calls of the source. No cut-off for these calls is given here.

In test [1] the target is T1, Nicotinamide N-methyltransferase (Homo sapiens) (UniProt P40261).
T1 sequence (whole entry): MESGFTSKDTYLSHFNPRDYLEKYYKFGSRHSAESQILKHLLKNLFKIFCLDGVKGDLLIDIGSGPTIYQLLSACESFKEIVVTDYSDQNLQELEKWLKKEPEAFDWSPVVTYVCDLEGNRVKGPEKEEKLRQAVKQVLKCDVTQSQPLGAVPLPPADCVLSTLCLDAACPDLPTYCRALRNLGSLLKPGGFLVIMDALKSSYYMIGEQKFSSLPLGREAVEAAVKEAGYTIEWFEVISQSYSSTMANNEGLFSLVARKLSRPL
The experiment in a line: Inhibition of NNMT in human 786-O cell lysate using d4-nicotinamide as substrate preincubated for 1 hr followed by substrate and SAM addition measured after 15 to 30 mins by LC-MS analysis.

Test [2] addresses T2, Nicotinamide N-methyltransferase (Homo sapiens, UniProt P40261).
T2 sequence (P40261 whole entry): T1 sequence (whole entry)
The experiment in a line: Inhibition of NNMT in human 786-O cell lysate using d4-nicotinamide as substrate pretreated for 1 hr at 3 mins post 40 uM SAM addition followed by substrate addition measured after 15 to 30 mins by LC-MS analysis.

In test [3] the target is Receptor expression-enhancing protein 5 (Homo sapiens) (UniProt Q00765). The experiment in a line: Binding affinity to REEP5 cysteine residue in human 786-O cell soluble proteomic lysate at 5 uM incubated for 1 hr followed by cell lysis by IA-alkyne probe based isoTOP-ABPP analysis.
The target of test [4] is T3, Glutathione S-transferase omega-1 (Homo sapiens) (UniProt P78417).
T3 sequence (whole entry): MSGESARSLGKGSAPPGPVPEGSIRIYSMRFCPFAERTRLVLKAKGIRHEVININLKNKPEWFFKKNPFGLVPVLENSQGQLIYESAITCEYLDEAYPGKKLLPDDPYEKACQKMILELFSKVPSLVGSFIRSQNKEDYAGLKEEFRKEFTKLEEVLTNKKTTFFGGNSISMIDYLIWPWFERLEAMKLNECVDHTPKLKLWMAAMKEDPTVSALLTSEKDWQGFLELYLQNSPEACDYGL
The experiment in a line: Binding affinity to GSTO1 cysteine residue in human 786-O cell soluble proteomic lysate at 5 uM incubated for 1 hr followed by cell lysis by IA-alkyne probe based isoTOP-ABPP analysis.

The target of test [5] is T4, Mitochondrial-processing peptidase subunit alpha (Homo sapiens) (UniProt Q10713).
T4 sequence (whole entry): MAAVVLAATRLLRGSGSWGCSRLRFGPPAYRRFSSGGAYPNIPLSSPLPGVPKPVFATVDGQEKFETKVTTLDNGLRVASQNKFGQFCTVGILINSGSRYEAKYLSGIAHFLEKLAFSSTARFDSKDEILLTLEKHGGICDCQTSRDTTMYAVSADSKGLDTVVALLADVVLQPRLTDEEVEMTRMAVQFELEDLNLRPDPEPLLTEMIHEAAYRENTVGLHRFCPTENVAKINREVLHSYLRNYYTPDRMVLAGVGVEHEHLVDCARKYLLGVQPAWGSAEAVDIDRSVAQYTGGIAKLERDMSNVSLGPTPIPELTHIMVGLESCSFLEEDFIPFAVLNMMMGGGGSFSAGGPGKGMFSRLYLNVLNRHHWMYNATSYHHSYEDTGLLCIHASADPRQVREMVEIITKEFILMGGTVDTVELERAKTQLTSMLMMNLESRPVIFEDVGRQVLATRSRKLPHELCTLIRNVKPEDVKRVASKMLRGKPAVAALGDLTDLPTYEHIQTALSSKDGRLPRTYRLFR
In words: Binding affinity to PMPCA cysteine residue in human 786-O cell soluble proteomic lysate at 5 uM incubated for 1 hr followed by cell lysis by IA-alkyne probe based isoTOP-ABPP analysis.

The target of another test is T5, Zyxin (Homo sapiens) (UniProt Q15942).
T5 sequence (whole entry): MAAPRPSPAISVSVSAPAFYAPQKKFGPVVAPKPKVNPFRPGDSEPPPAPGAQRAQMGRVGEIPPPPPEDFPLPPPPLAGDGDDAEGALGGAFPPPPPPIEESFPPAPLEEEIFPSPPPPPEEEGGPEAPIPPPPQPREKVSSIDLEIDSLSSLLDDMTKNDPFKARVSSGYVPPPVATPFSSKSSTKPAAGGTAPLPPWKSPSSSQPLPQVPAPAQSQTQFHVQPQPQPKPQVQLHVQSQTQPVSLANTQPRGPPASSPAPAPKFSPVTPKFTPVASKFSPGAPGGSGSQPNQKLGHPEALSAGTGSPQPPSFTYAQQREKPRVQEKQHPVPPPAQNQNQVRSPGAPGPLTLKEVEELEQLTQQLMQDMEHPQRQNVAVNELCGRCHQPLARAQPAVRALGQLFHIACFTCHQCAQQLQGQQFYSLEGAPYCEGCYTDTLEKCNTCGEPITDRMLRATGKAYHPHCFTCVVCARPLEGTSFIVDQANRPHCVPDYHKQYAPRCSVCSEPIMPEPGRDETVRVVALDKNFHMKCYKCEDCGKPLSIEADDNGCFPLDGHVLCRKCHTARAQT
The experiment in a line: Binding affinity to ZYX cysteine residue in human 786-O cell soluble proteomic lysate at 5 uM incubated for 1 hr followed by cell lysis by IA-alkyne probe based isoTOP-ABPP analysis.

The target of test [6] is T6, Sterol carrier protein 2 (Homo sapiens) (UniProt P22307).
T6 sequence (whole entry): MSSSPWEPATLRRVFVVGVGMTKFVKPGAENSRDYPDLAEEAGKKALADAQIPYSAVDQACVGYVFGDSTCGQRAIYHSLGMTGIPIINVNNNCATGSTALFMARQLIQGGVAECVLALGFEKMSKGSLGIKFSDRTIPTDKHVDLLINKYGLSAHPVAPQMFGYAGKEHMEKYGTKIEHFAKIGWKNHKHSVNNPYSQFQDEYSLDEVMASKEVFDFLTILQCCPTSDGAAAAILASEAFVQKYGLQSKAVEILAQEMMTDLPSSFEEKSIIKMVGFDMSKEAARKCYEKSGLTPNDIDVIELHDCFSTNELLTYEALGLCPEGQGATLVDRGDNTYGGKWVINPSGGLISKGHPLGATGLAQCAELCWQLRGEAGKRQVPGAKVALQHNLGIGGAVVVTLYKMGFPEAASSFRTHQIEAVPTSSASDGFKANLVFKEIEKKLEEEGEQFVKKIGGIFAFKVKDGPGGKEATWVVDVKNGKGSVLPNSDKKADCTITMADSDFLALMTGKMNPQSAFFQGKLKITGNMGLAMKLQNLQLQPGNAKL
In words: Binding affinity to SCP2 cysteine residue in human 786-O cell soluble proteomic lysate at 5 uM incubated for 1 hr followed by cell lysis by IA-alkyne probe based isoTOP-ABPP analysis.

Receptor expression-enhancing protein 5 (Homo sapiens), sequence (Q00765 whole entry): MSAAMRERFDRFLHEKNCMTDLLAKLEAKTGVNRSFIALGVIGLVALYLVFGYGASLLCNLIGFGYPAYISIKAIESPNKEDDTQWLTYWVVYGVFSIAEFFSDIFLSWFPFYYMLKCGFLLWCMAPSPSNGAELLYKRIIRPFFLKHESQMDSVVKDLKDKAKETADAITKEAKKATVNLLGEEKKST

One may read the IC50 as the concentration that inhibits the measured activity by half. As for `CC(C)CCN(C(=O)CCl)c1cc(C(=O)NCc2cccc([N+](=O)[O-])c2)cc(C(F)(F)F)c1`, the inhibition result in test [1] is “Dose-dependent effect”. The IC50 in test [2] came to 10 µM. The result in test [3] and in test [4] was Active.

In the case of `O=C(Nc1cccnc1Cl)c1cc(N(CCCc2ccccc2)C(=O)CCl)cc(C(F)(F)F)c1`, the outcome (in test [5]; on Zyxin (Homo sapiens); in test [6]) was Active.
